Data reported in patent publication US20240025856A1, “1,2,3,4-TETRAHYDROQUINOLINE DERIVATIVES AS INHIBITORS OF THE YAP/TAZ-TEAD ACTIVATION FOR TREATING CANCER” (KATHOLIEKE UNIVERSITEIT LEUVEN, priority 2020, published 2024).
pIC50: −log10 of the molar value.

Tested on: YAP/TAZ-TEAD transcription
Assay: Reporter gene assay for measuring the inhibition of YAP/TAZ-TEAD transcription (TEAD-responsive element luciferase reporter in Hek293T cells)
Type: cell-based
Settings: Homo sapiens, HEK-293T, 24 h, Hek293T cells transiently transfected with TEAD-responsive element luciferase reporter; 24 hours incubation
In short: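 Readout is SteadyLite luciferase luminescence from a TEAD-responsive element reporter transiently transfected into Hek293T cells, exposed to compounds for 24 h at 37 °C/5% CO2. IC50 derived from percent inhibition, scaled between vehicle basal activity (0%) and positive control inhibitor (100%).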

pIC50	SMILES
> 6.00	C=CC(=O)NCC1Cc2ccccc2N(c2ccc(C#N)nc2)C1 (stereo not shown) [compound 151, N-((1-(6-cyanopyridin-3-yl)-1,2,3,4-tetrahydroquinolin-3-yl)methyl)acrylamide]
4.70 to 6.00	CCC(=O)NCC1Cc2ccccc2N(c2ccc(C(F)F)nc2)C1 (stereo not shown) [compound 152, N-((1-(6-(difluoromethyl)pyridin-3-yl)-1,2,3,4-tetrahydroquinolin-3-yl)methyl)propionamide]
< 4.70	CC(=O)NCC1Cc2c(C(=O)O)cccc2N(c2ccc(C(F)(F)F)cc2)C1 (stereo not shown) [compound 155, 3-(acetamidomethyl)-1-(4-(trifluoromethyl)phenyl)-1,2,3,4-tetrahydroquinoline-5-carboxylic acid]
< 4.70	C=CC(=O)NCC1Cc2c(C(=O)NS(C)(=O)=O)cccc2N(c2ccc(C(F)(F)F)cc2)C1 (stereo not shown) [compound 157, 3-(acrylamidomethyl)-N-(methylsulfonyl)-1-(4-(trifluoromethyl)phenyl)-1,2,3,4-tetrahydroquinoline-5-carboxamide]
> 6.00	C=CC(=O)NCC1Cc2ccccc2N(c2ccc(C=O)cc2)C1 (stereo not shown) [compound 159, N-((1-(4-formylphenyl)-1,2,3,4-tetrahydroquinolin-3-yl)methyl)acrylamide]
< 4.70	C=CC(=O)NC1Cc2c(C(=O)NS(C)(=O)=O)cccc2N(c2ccc(C(F)(F)F)cc2)C1 (stereo not shown) [compound 160, 3-acrylamido-N-(methylsulfonyl)-1-(4-(trifluoromethyl)phenyl)-1,2,3,4-tetrahydroquinoline-5-carboxamide]
< 4.70	C=CC(=O)NC1Cc2c(CC(=O)O)cccc2N(c2ccc(C(F)(F)F)cc2)C1 (stereo not shown) [compound 162, 2-(3-acrylamido-1-(4-(trifluoromethyl)phenyl)-1,2,3,4-tetrahydroquinolin-5-yl)acetic acid]
< 4.70	C=CC(=O)NC1Cc2c(CC(=O)NS(C)(=O)=O)cccc2N(c2ccc(C(F)(F)F)cc2)C1 (stereo not shown) [compound 165, N-(5-(2-(methylsulfonamido)-2-oxoethyl)-1-(4-(trifluoromethyl)phenyl)-1,2,3,4-tetrahydroquinolin-3-yl)acrylamide]
< 4.70	C=CC(=O)NC1Cc2c(-c3noc(=O)[nH]3)cccc2N(c2ccc(C(F)(F)F)cc2)C1 (stereo not shown) [compound 166, N-(5-(5-oxo-4,5-dihydro-1,2,4-oxadiazol-3-yl)-1-(4-(trifluoromethyl)phenyl)-1,2,3,4-tetrahydroquinolin-3-yl)acrylamide]
< 4.70	C=CC(=O)NCC1Cc2c(-c3noc(=O)[nH]3)cccc2N(c2ccc(C(F)(F)F)cc2)C1 (stereo not shown) [compound 167, N-((5-(5-oxo-4,5-dihydro-1,2,4-oxadiazol-3-yl)-1-(4-(trifluoromethyl)phenyl)-1,2,3,4-tetrahydroquinolin-3-yl)methyl)acrylamide]
< 4.70	C=CC(=O)NC1Cc2ccccc2N(C(=O)c2ccccc2)C1 (stereo not shown) [compound 172, N-(1-benzoyl-1,2,3,4-tetrahydroquinolin-3-yl)acrylamide]
> 6.00	C=CC(=O)NCC1Cc2ccccc2N(Cc2ccccc2)C1 (stereo not shown) [compound 176, N-((1-benzyl-1,2,3,4-tetrahydroquinolin-3-yl)methyl)acrylamide]
> 6.00	C=CC(=O)NCC1Cc2ccccc2N(C(=O)c2ccccc2)C1 (stereo not shown) [compound 177, N-((1-benzoyl-1,2,3,4-tetrahydroquinolin-3-yl)methyl)acrylamide]
> 6.00	C=CC(=O)NCC1Cc2ccccc2N(CC2CCCCC2)C1 (stereo not shown) [compound 179, N-((1-(cyclohexylmethyl)-1,2,3,4-tetrahydroquinolin-3-yl)methyl)acrylamide]
> 6.00	C=CC(=O)NCC1Cc2ccccc2N(C(=O)C2CCCCC2)C1 (stereo not shown) [compound 180, N-((1-(cyclohexanecarbonyl)-1,2,3,4-tetrahydroquinolin-3-yl)methyl)acrylamide]
> 6.00	C=CC(=O)NC1Cc2ccccc2N(Cc2cccc(C(F)(F)F)c2)C1 (stereo not shown) [compound 182, N-(1-(3-(trifluoromethyl)benzyl)-1,2,3,4-tetrahydroquinolin-3-yl)acrylamide]
